Like-named read-outs stand apart in the source and are kept apart here.
Assays:
Assay type in all cases: in vivo
Barnyardgrass [1] = assay: pre-emergence herbicide test; conditions: Echinochloa crus-galli, pre-emergence, read-out: % plant inhibition
Summary of the method: (§1)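 Herbicidal effect was assessed as percent inhibition about 14 days after sowing. A known amount of compound was added to the covering topsoil, and the pans were subirrigated in a greenhouse.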

Cocklebur [2] = assay: pre-emergence herbicide test; conditions: Xanthium strumarium, pre-emergence, read-out: % plant inhibition
Summary of the method: as §1

Corn = assay: pre-emergence herbicide test; conditions: Zea mays, pre-emergence, read-out: % plant inhibition
Summary of the method: as §1

Morning Glory = assay: pre-emergence herbicide test; conditions: Ipomoea, pre-emergence, read-out: % plant inhibition
Summary of the method: as §1

Rice = assay: pre-emergence herbicide test; conditions: Oryza sativa, read-out: % plant inhibition
Summary of the method: as §1

Soybean [3] = assay: pre-emergence herbicide test; conditions: Glycine max, pre-emergence, read-out: % plant inhibition
Summary of the method: as §1

Velvetleaf = assay: pre-emergence herbicide test; conditions: Abutilon theophrasti, pre-emergence, read-out: % plant inhibition
Summary of the method: as §1

Yellow Foxtail = assay: pre-emergence herbicide test; conditions: Setaria, read-out: % plant inhibition
Summary of the method: as §1

Yellow Nutsedge = assay: pre-emergence herbicide test; conditions: Cyperus, read-out: % plant inhibition
Summary of the method: as §1

Barnyardgrass [4] = assay: post-emergence herbicide test; conditions: Echinochloa crus-galli, post-emergence, read-out: % plant inhibition
Summary of the method: (§2)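 Percent inhibition of each species scored after post-emergence spraying of two- to three-week-old greenhouse plants. Spray solution carried about 0.4% by volume emulsifier, delivered by atomizer at 170.3 kPa (10 psig) and 1870 L/Ha total volume.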

Bedstraw Catchweed = assay: post-emergence herbicide test; conditions: Galium aparine, post-emergence, read-out: % plant inhibition
Summary of the method: as §2

Blackgrass = assay: post-emergence herbicide test; conditions: Alopecurus myosuroides, post-emergence, read-out: % plant inhibition; for inhibition at 7.95803 g/ha: 0.0071 lb/A; for inhibition at 40.0143 g/ha: 0.0357 lb/A; for inhibition at 200.072 g/ha: 0.1785 lb/A; for inhibition at 1000.92 g/ha: 0.893 lb/A
Summary of the method: as §2

Cocklebur [5] = assay: post-emergence herbicide test; conditions: Xanthium strumarium, post-emergence, read-out: % plant inhibition
Summary of the method: as §2

Soybean [6] = assay: post-emergence herbicide test; conditions: Glycine max, post-emergence, read-out: % plant inhibition
Summary of the method: as §2

Wheat = assay: post-emergence herbicide test; conditions: Triticum aestivum, post-emergence, read-out: % plant inhibition
Summary of the method: as §2

**Q.** Which results are given for `COc1cc(-c2nn(C)c(C(F)(F)F)c2C)c(F)cc1[N+](=O)[O-]` [Compound 36]?
**A.** inhibition at 7.95803 g/ha (Barnyardgrass [1]; 0.0071 lb/A): 0%; inhibition at 40.0143 g/ha (Barnyardgrass [1]; 0.0357 lb/A): 20%; inhibition at 200.072 g/ha (Barnyardgrass [1]; 0.1785 lb/A): 90%; inhibition at 1000.92 g/ha (Barnyardgrass [1]; 0.893 lb/A): 100%; inhibition at 7.95803 g/ha (Cocklebur [2]; 0.0071 lb/A): 0%; inhibition at 40.0143 g/ha (Cocklebur [2]; 0.0357 lb/A): 20%; inhibition at 200.072 g/ha (Cocklebur [2]; 0.1785 lb/A): 0%; inhibition at 1000.92 g/ha (Cocklebur [2]; 0.893 lb/A): 85%; inhibition at 7.95803 g/ha (Corn; 0.0071 lb/A): 0%; inhibition at 40.0143 g/ha (Corn; 0.0357 lb/A): 10%; inhibition at 200.072 g/ha (Corn; 0.1785 lb/A): 55%; inhibition at 1000.92 g/ha (Corn; 0.893 lb/A): 90%; inhibition at 7.95803 g/ha (Morning Glory; 0.0071 lb/A): 0%; inhibition at 40.0143 g/ha (Morning Glory; 0.0357 lb/A): 10%; inhibition at 200.072 g/ha (Morning Glory; 0.1785 lb/A): 60%; inhibition at 1000.92 g/ha (Morning Glory; 0.893 lb/A): 90%; inhibition at 7.95803 g/ha (Rice; 0.0071 lb/A): 0%; inhibition at 40.0143 g/ha (Rice; 0.0357 lb/A): 0%; inhibition at 200.072 g/ha (Rice; 0.1785 lb/A): 0%; inhibition at 1000.92 g/ha (Rice; 0.893 lb/A): 65%; inhibition at 7.95803 g/ha (Soybean [3]; 0.0071 lb/A): 0%; inhibition at 40.0143 g/ha (Soybean [3]; 0.0357 lb/A): 0%; inhibition at 200.072 g/ha (Soybean [3]; 0.1785 lb/A): 0%; inhibition at 1000.92 g/ha (Soybean [3]; 0.893 lb/A): 10%; inhibition at 7.95803 g/ha (Velvetleaf; 0.0071 lb/A): 20%; inhibition at 40.0143 g/ha (Velvetleaf; 0.0357 lb/A): 20%; inhibition at 200.072 g/ha (Velvetleaf; 0.1785 lb/A): 98%; inhibition at 1000.92 g/ha (Velvetleaf; 0.893 lb/A): 100%; inhibition at 7.95803 g/ha (Yellow Foxtail; 0.0071 lb/A): 0%; inhibition at 40.0143 g/ha (Yellow Foxtail; 0.0357 lb/A): 15%; inhibition at 200.072 g/ha (Yellow Foxtail; 0.1785 lb/A): 98%; inhibition at 1000.92 g/ha (Yellow Foxtail; 0.893 lb/A): 100%; inhibition at 7.95803 g/ha (Yellow Nutsedge; 0.0071 lb/A): 0%; inhibition at 40.0143 g/ha (Yellow Nutsedge; 0.0357 lb/A): 0%; inhibition at 200.072 g/ha (Yellow Nutsedge; 0.1785 lb/A): 0%; inhibition at 1000.92 g/ha (Yellow Nutsedge; 0.893 lb/A): 0%; inhibition at 7.95803 g/ha (Barnyardgrass [4]; 0.0071 lb/A): 0%; inhibition at 40.0143 g/ha (Barnyardgrass [4]; 0.0357 lb/A): 0%; inhibition at 200.072 g/ha (Barnyardgrass [4]; 0.1785 lb/A): 45%; inhibition at 1000.92 g/ha (Barnyardgrass [4]; 0.893 lb/A): 50%; inhibition at 7.95803 g/ha (Bedstraw Catchweed; 0.0071 lb/A): 0%; inhibition at 40.0143 g/ha (Bedstraw Catchweed; 0.0357 lb/A): 25%; inhibition at 200.072 g/ha (Bedstraw Catchweed; 0.1785 lb/A): 50%; inhibition at 1000.92 g/ha (Bedstraw Catchweed; 0.893 lb/A): 75%; inhibition at 7.95803 g/ha (Blackgrass; Table 4a): 0%; inhibition at 7.95803 g/ha (Blackgrass; Table 5a): 0%; inhibition at 40.0143 g/ha (Blackgrass; Table 4a): 0%; inhibition at 40.0143 g/ha (Blackgrass; Table 5a): 10%; inhibition at 200.072 g/ha (Blackgrass; Table 4a): 0%; inhibition at 200.072 g/ha (Blackgrass; Table 5a): 25%; inhibition at 1000.92 g/ha (Blackgrass; Table 4a): 0%; inhibition at 1000.92 g/ha (Blackgrass; Table 5a): 60%; inhibition at 7.95803 g/ha (Cocklebur [5]; 0.0071 lb/A): 75%; inhibition at 40.0143 g/ha (Cocklebur [5]; 0.0357 lb/A): 0%; inhibition at 200.072 g/ha (Cocklebur [5]; 0.1785 lb/A): 60%; inhibition at 1000.92 g/ha (Cocklebur [5]; 0.893 lb/A): 98%; inhibition at 7.95803 g/ha (Soybean [6]; 0.0071 lb/A): 15%; inhibition at 40.0143 g/ha (Soybean [6]; 0.0357 lb/A): 25%; inhibition at 200.072 g/ha (Soybean [6]; 0.1785 lb/A): 35%; inhibition at 1000.92 g/ha (Soybean [6]; 0.893 lb/A): 45%; inhibition at 7.95803 g/ha (Wheat; 0.0071 lb/A): 10%; inhibition at 40.0143 g/ha (Wheat; 0.0357 lb/A): 5%; inhibition at 200.072 g/ha (Wheat; 0.1785 lb/A): 20%; inhibition at 1000.92 g/ha (Wheat; 0.893 lb/A): 25%

Source: patent US5672715A, “Herbicidal substituted 3-aryl-pyrazoles” (Monsanto Company, priority 1995, dated 1997)
